Experimental data from ChEMBL document CHEMBL1909046, “DrugMatrix in vitro pharmacology data”.

Columns and labels:
[1] = target: cGMP-specific 3',5'-cyclic phosphodiesterase (Homo sapiens, UniProt O76074); assay: DRUGMATRIX: Phosphodiesterase PDE5 enzyme inhibition (substrate: [3H]cGMP + cGMP); format: tissue-based, Platelet; details: platelet; Not Active = under 50% inhibition at 10 µM
[2] = DRUGMATRIX: Calcium Channel Type L, Dihydropyridine radioligand binding (ligand: [3H] Nitrendipine); format: cell membranes, Rattus norvegicus, Wistar, Cerebral cortex, Membrane; details: Not Active = under 50% inhibition at 10 µM
[3] = DRUGMATRIX: Potassium Channel [KATP] radioligand binding (ligand: [3H] Glyburide); format: cell membranes, Membrane; details: hit-t15; Not Active = under 50% inhibition at 10 µM
[4] = target: Kappa-type opioid receptor (Homo sapiens, UniProt P41145); assay: DRUGMATRIX: Opiate kappa (OP2, KOP) radioligand binding (ligand: [3H] Diprenorphine); format: cell membranes, HEK293, Membrane; details: hek293; Not Active = under 50% inhibition at 10 µM
Kappa-type opioid receptor, sequence (P41145 whole entry): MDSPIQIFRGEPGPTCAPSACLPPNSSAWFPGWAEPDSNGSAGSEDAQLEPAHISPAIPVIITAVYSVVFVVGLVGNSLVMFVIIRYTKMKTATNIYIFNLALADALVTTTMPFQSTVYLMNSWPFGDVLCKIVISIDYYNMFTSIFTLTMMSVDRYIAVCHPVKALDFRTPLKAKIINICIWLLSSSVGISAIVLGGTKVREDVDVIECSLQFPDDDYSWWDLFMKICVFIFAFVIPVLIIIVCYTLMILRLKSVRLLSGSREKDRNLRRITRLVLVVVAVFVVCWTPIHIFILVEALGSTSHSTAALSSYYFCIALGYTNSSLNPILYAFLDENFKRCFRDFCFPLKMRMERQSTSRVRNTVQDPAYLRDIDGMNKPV

Cytochrome P450 2C9 = Cytochrome P450 2C9 (Homo sapiens, UniProt P11712); details: bti-tn-5b1-4; note: in other assays of this panel Not Active means under 50% inhibition at 10 µM
Cytochrome P450 2C9, sequence (P11712 whole entry): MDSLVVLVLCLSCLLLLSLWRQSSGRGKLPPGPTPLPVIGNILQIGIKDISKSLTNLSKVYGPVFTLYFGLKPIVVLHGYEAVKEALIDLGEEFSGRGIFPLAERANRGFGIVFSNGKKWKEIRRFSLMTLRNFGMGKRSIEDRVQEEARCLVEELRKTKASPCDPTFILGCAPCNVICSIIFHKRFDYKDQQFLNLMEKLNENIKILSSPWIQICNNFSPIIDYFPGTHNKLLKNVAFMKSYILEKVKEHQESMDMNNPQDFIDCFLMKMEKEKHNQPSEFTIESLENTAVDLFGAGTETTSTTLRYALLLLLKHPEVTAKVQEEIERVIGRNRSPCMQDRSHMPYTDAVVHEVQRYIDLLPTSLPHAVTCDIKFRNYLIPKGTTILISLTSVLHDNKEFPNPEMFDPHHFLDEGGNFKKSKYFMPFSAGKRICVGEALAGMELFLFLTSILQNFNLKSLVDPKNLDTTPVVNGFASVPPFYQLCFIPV

Carbonic anhydrase 2 = Carbonic anhydrase 2 (Homo sapiens, UniProt P00918); assay: DRUGMATRIX: Carbonic Anhydrase II enzyme inhibition (substrate: 4-Nitrophenyl acetate (4-NPA)); format: tissue-based; details: erythrocyte; Not Active = under 50% inhibition at 10 µM
[5] = target: T1, Muscarinic acetylcholine receptor M4 (Homo sapiens, UniProt P08173); format: cell membranes, CHO-K1, Membrane; details: cho-k1; note: in other assays of this panel Not Active means under 50% inhibition at 10 µM
T1 sequence (P08173 whole entry): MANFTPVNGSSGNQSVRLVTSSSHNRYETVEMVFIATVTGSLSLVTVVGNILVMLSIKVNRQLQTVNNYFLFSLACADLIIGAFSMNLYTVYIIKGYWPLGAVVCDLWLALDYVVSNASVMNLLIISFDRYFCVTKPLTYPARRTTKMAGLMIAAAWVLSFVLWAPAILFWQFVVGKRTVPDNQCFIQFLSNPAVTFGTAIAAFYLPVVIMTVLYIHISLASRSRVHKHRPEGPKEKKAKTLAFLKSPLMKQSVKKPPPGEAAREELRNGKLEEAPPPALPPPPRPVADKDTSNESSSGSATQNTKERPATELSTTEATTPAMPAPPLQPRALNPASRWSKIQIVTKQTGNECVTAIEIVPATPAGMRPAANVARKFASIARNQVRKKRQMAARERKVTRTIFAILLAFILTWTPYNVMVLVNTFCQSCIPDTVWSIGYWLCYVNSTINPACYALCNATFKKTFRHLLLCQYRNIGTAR

CC(C)Cc1ccc([C@@H](C)C(=O)O)cc1 [(R)-IBUPROPHEN]
Not Active: IC50 [1] | IC50 [2] | Ki [2] | IC50 [3] | Ki [3] | IC50 [4] | IC50 (Cytochrome P450 2C9) | Ki (Cytochrome P450 2C9) | IC50 (Carbonic anhydrase 2) | IC50 [5]

CC(C)Oc1ccc2c(=O)c(-c3ccccc3)coc2c1 [IPRIFLAVONE]
Not Active: IC50 [1] | IC50 [2] | Ki [2] | IC50 [3] | Ki [3] | IC50 [4] | IC50 (Cytochrome P450 2C9) | Ki (Cytochrome P450 2C9) | IC50 (Carbonic anhydrase 2) | IC50 [5]

CC(C)NCC(O)c1ccc(O)c(O)c1 (stereo not drawn) [ISOPROTERENOL]
Not Active: IC50 [1] | IC50 [2] | Ki [2] | IC50 [3] | Ki [3] | IC50 [4] | IC50 (Cytochrome P450 2C9) | Ki (Cytochrome P450 2C9) | IC50 (Carbonic anhydrase 2) | IC50 [5]

CNC1(c2ccccc2Cl)CCCCC1=O (stereo not drawn) [KETAMINE]
Not Active: IC50 [1] | IC50 [2] | Ki [2] | IC50 [3] | Ki [3] | IC50 [4] | IC50 (Cytochrome P450 2C9) | Ki (Cytochrome P450 2C9) | IC50 (Carbonic anhydrase 2) | IC50 [5]

N#Cc1ccc(C(c2ccc(C#N)cc2)n2cncn2)cc1 [LETROZOLE]
Not Active: IC50 [1] | IC50 [2] | Ki [2] | IC50 [3] | Ki [3] | IC50 [4] | IC50 (Cytochrome P450 2C9) | Ki (Cytochrome P450 2C9) | IC50 (Carbonic anhydrase 2) | IC50 [5]

O=C1Nc2ccc(Cl)cc2C(c2ccccc2Cl)=NC1O (stereo not drawn) [LORAZEPAM]
Not Active: IC50 [1] | IC50 [2] | Ki [2] | IC50 [3] | Ki [3] | IC50 [4] | IC50 (Cytochrome P450 2C9) | Ki (Cytochrome P450 2C9) | IC50 (Carbonic anhydrase 2) | IC50 [5]

CO[C@@H]1[C@@H](OC)[C@H](C)[C@@](O)(CC(=O)O)O[C@H]1[C@H](C)[C@H]1O[C@@]2(CC[C@@](C)([C@H]3CC[C@@](C)([C@@H]4O[C@@H]([C@H]5O[C@](C)(O)[C@H](C)C[C@@H]5C)C[C@@H]4O[C@@H]4C[C@H](OC)[C@@H](OC)[C@H](C)O4)O3)O2)C[C@H](O)[C@H]1C [MADURAMICIN ACID]
Not Active: IC50 [1] | IC50 [2] | Ki [2] | IC50 [3] | Ki [3] | IC50 [4] | IC50 (Cytochrome P450 2C9) | Ki (Cytochrome P450 2C9) | IC50 (Carbonic anhydrase 2) | IC50 [5]

COc1c2occc2cc2ccc(=O)oc12 [METHOXSALEN]
Not Active: IC50 [1] | IC50 [2] | Ki [2] | IC50 [3] | Ki [3] | IC50 [4] | IC50 (Cytochrome P450 2C9) | Ki (Cytochrome P450 2C9) | IC50 (Carbonic anhydrase 2) | IC50 [5]

C[C@H]1C[C@@H]2[C@H]([C@@H](O)C[C@@]3(C)[C@H]2CC[C@]3(O)C(=O)CO)[C@@]2(C)C=CC(=O)C=C12 [METHYLPREDNISOLONE]
Not Active: IC50 [1] | IC50 [2] | Ki [2] | IC50 [3] | Ki [3] | IC50 [4] | IC50 (Cytochrome P450 2C9) | Ki (Cytochrome P450 2C9) | IC50 (Carbonic anhydrase 2) | IC50 [5]

Cc1cccc(C)c1OCC(C)N (stereo not drawn) [MEXILETINE]
Not Active: IC50 [1] | IC50 [2] | Ki [2] | IC50 [3] | Ki [3] | IC50 [4] | IC50 (Cytochrome P450 2C9) | Ki (Cytochrome P450 2C9) | IC50 (Carbonic anhydrase 2) | IC50 [5]

Nc1cc(N2CCCCC2)nc(N)[n+]1[O-] [MINOXIDIL]
Not Active: IC50 [1] | IC50 [2] | Ki [2] | IC50 [3] | Ki [3] | IC50 [4] | IC50 (Cytochrome P450 2C9) | Ki (Cytochrome P450 2C9) | IC50 (Carbonic anhydrase 2) | IC50 [5]

CO[C@H]1/C=C/O[C@@]2(C)Oc3c(C)c(O)c4c(O)c(c(/C=N/N5CCN(C6CCCC6)CC5)c(O)c4c3C2=O)NC(=O)/C(C)=C\C=C\[C@H](C)[C@H](O)[C@@H](C)[C@@H](O)[C@@H](C)[C@H](OC(C)=O)[C@@H]1C [RIFAPENTINE]
Not Active: IC50 [1] | IC50 [2] | Ki [2] | IC50 [3] | Ki [3] | IC50 [4] | IC50 (Cytochrome P450 2C9) | Ki (Cytochrome P450 2C9) | IC50 (Carbonic anhydrase 2) | IC50 [5]

CCCCOc1cc(CC2CNC(=O)N2)ccc1OC (stereo not drawn) [RO-201724]
Not Active: IC50 [1] | IC50 [2] | Ki [2] | IC50 [3] | Ki [3] | IC50 [4] | IC50 (Cytochrome P450 2C9) | Ki (Cytochrome P450 2C9) | IC50 (Carbonic anhydrase 2) | IC50 [5]

O=C(Oc1ccccc1C(=O)O)c1ccccc1O [SALSALATE]
Not Active: IC50 [1] | IC50 [2] | Ki [2] | IC50 [3] | Ki [3] | IC50 [4] | IC50 (Cytochrome P450 2C9) | Ki (Cytochrome P450 2C9) | IC50 (Carbonic anhydrase 2) | IC50 [5]

COc1cc2nc(N3CCN(C(=O)C4CCCO4)CC3)nc(N)c2cc1OC (stereo not drawn) [TERAZOSIN]
Not Active: IC50 [1] | IC50 [2] | Ki [2] | IC50 [4] | IC50 (Cytochrome P450 2C9) | Ki (Cytochrome P450 2C9) | IC50 (Carbonic anhydrase 2) | IC50 [5]
